These results are taken from patent US12319655B2, “RAF kinase inhibitors and methods of use thereof” (Deciphera Pharmaceuticals, LLC, priority 2021, dated 2025).

Test [1] addresses A-Raf kinase (SEQ. ID No: 1) (Homo sapiens (Human), UniProt P10398, Y301D/Y302D). The test is described as follows: Biochemical Assay for A-Raf (1). To be noted: Table J, assay version (1); read-out: ARAF (1) IC50. An outline of the steps:
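IC50 values were derived by four-parameter sigmoidal fitting of percent inhibition, calculated from reaction rates over the 4–5 h window. Absorbance at 340 nm was tracked for 6 h at 30 °C via coupled PK/LDH NADH depletion. Conditions: 1 mM ATP, 30.1 nM MEK substrate, 5.55 nM A-Raf (Y301D/Y302D), Tris pH 7.5, 1% DMSO.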

The target in test [2] is C-Raf kinase (SEQ. ID NO: 3) (Homo sapiens (Human), UniProt P04049, Y340D/Y341D). The test is described as follows: Biochemical Assay for C-Raf (1). To be noted: Table J, assay version (1); read-out: CRAF (1) IC50. An outline of the steps: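 IC50 values come from a four-parameter fit of percent inhibition, using the reaction rate over 4–5 h of a 6 h continuous 340 nm read at 30 °C. The enzyme mix was C-Raf 0.43 nM, MEK substrate 30.1 nM and ATP 1 mM, in a PK/LDH NADH-coupled format in Tris pH 7.5 with 1% DMSO.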

Test [3] deals with B-Raf (V600E) (SEQ. ID NO: 4) kinase (Homo sapiens (Human), UniProt P15056, V600E). Nature of the test: Biochemical Assay for B-Raf (V600E) (1). To be noted: Table J, BRAF V600E, assay version (1); read-out: BRAF VE (1) IC50. An outline of the steps:
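Serially diluted compounds tested against 0.03 nM enzyme with 30.1 nM MEK substrate and 1 mM ATP (Tris pH 7.5, 15 mM MgCl2), ATP use coupled to NADH loss via PK/LDH. A340 monitored continuously 6 h, 30 °C; IC50 fitted (four-parameter) from the 3–4 h rate versus no-compound and known-inhibitor controls.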

Another test relates to Miapaca-2 cells. Nature of the test: MiaPaca-2 Cell Proliferation Assay (1). The test is classed as cell-based. The conditions noted are these: Homo sapiens, MIA PaCa-2, single agent, read-out: MiaPaca2 (1) IC50. An outline of the steps:
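Resazurin was added after compound exposure and incubated 5-6 h, then fluorescence read at 540 nm excitation and 600 nm emission to give IC50.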

C-Raf kinase (SEQ. ID NO: 3), sequence (P04049 307-648 Y340D/Y341D): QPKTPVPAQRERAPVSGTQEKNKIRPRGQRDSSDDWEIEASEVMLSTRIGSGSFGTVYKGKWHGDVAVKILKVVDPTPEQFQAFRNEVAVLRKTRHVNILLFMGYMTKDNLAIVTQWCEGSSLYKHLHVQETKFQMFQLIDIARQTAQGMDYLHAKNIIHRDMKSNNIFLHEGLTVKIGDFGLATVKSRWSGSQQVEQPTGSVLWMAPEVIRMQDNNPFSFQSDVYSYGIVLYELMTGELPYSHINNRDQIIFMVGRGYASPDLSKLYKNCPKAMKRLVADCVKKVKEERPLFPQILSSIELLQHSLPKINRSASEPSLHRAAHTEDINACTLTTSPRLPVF
A-Raf kinase (SEQ. ID No: 1), sequence (P10398 other isoform, or with tags, fused parts or gaps Y301D (already in the parent)/Y302D (already in the parent)): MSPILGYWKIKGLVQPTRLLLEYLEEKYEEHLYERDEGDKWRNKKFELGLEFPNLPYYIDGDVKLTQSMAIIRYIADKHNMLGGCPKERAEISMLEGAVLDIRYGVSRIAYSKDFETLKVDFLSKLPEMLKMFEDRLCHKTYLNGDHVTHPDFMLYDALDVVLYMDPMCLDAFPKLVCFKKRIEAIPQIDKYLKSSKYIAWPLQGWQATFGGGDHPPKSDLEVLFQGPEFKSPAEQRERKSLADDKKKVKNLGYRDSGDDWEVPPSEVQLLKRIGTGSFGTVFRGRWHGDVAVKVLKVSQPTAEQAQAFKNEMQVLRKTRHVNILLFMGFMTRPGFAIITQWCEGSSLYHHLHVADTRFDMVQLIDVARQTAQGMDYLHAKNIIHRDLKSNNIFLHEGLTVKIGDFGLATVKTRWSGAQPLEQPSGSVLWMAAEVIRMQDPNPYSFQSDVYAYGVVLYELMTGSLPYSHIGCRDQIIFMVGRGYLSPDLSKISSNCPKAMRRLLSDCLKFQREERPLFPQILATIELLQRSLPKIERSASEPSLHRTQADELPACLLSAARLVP
B-Raf (V600E) (SEQ. ID NO: 4) kinase, sequence (P15056 416-766 V600E): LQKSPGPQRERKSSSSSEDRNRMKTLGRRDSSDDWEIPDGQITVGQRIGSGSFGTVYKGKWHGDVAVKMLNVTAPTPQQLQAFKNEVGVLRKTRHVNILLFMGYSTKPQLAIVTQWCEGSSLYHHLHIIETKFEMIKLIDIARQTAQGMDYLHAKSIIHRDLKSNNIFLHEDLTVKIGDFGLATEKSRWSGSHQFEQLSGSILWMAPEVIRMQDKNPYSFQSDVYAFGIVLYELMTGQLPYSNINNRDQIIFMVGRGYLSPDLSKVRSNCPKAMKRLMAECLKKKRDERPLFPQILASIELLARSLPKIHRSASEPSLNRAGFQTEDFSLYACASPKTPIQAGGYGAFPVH

Regarding `CCOc1cc(-c2cc(NC(=O)c3ccnc(C(F)(F)F)c3)ccc2C)cc(-c2ccnc(NC(C)=O)c2)n1` [Example 8], the IC50 (in general, the concentration that gives 50% inhibition) is 1000 to 10000 nM in test [1], no more than 100 nM in test [2], no more than 100 nM in test [3] and 1000 to 10000 nM in the test with Miapaca-2 cells.
As to `CC(=O)Nc1cc(-c2cccc(-c3cc(NC(=O)c4ccnc(C(F)(F)F)c4)c(F)cc3C)c2)ncn1` [Example 114], the IC50 is 1000 to 10000 nM in test [1], no more than 100 nM in test [2], no more than 100 nM in test [3] and 1000 to 10000 nM with Miapaca-2 cells.
Turning to `CC(=O)Nc1cc(-c2cncc(-c3cc(NC(=O)c4ccc(Cl)c(C(F)(F)F)c4)ccc3C)n2)ccn1` [Example 121], the IC50 in test [1] is 1000 to 10000 nM; in test [2] it was no more than 100 nM; in test [3] it was no more than 100 nM; in the test on Miapaca-2 cells, 1000 to 10000 nM.
As to `Cc1ncc(NC(=O)c2ccnc(C(C)(C)C#N)c2)cc1-c1cccc(-c2cc(NC(=O)C3CC3)ncn2)c1` [Example 181], the IC50 in test [1] was 1000 to 10000 nM; in test [2], no more than 100 nM; in test [3] it was no more than 100 nM; with Miapaca-2 cells, 1000 to 10000 nM.
`COCC(=O)Nc1cc(-c2cncc(-c3cc(NC(=O)c4ccnc(C(C)(C)C#N)c4)ccc3C)n2)ccn1` [Example 142]: the IC50 in test [1] was 1000 to 10000 nM; in test [2], no more than 100 nM; in test [3] it was no more than 100 nM; in the test with Miapaca-2 cells, 1000 to 10000 nM.
In the case of `Cc1cc(F)c(NC(=O)c2ccnc(C(C)(C)C#N)c2)cc1-c1ccnc(-c2ccnc(NC(=O)C3CC3)c2)n1` [Example 179], the IC50 is 500 to 1000 nM in test [1], no more than 100 nM in test [2], no more than 100 nM in test [3] and 1000 to 10000 nM in the test with Miapaca-2 cells.
Regarding `CNC(=O)c1cc(-c2cccc(-c3cc(NC(=O)c4ccnc(C(F)(F)F)c4)ccc3C)c2)ncn1` [Example 106], the IC50 in test [1] is 1000 to 10000 nM; in test [2], no more than 100 nM; in test [3], no more than 100 nM; in the test on Miapaca-2 cells, 1000 to 10000 nM.
For the molecule `Cc1ccc(NC(=O)c2ccnc(C(F)(F)F)c2)cc1-c1ccnc(-c2ccnc(N)c2)n1` [Example 122], the IC50 was 1000 to 10000 nM in test [1], no more than 100 nM in test [2], no more than 100 nM in test [3] and 1000 to 10000 nM in the test on Miapaca-2 cells.
As to `Cc1ncc(NC(=O)c2ccnc(C3CC3)c2)cc1-c1cccc(-c2ncnc3[nH]ncc23)c1` [Example 131], the IC50 was 1000 to 10000 nM in test [1], no more than 100 nM in test [2], no more than 100 nM in test [3] and 1000 to 10000 nM with Miapaca-2 cells.
In the case of `Cc1ccc(NC(=O)c2ccnc(C(C)(C)C#N)c2)cc1-c1cncc(-c2ccnc(C(=O)NC3CC3)c2)n1` [Example 148], the IC50 in test [1] was 1000 to 10000 nM; in test [2], 100 to 500 nM; in test [3], no more than 100 nM; in the test on Miapaca-2 cells, 1000 to 10000 nM.
For the molecule `Cc1ncc(NC(=O)c2ccnc(C(F)(F)F)c2)cc1-c1cccc(-c2ccnc(N)c2)c1` [Example 94], the IC50 in test [1] was 1000 to 10000 nM; in test [2], no more than 100 nM; in test [3], no more than 100 nM; in the test with Miapaca-2 cells it was 1000 to 10000 nM.
On to `Cc1cc(F)c(NC(=O)c2ccnc(C(C)(C)C#N)c2)cc1-c1ccnc(-c2ccnc(NC=O)c2)c1` [Example 104], for which the IC50 in test [1] was 1000 to 10000 nM; in test [2], no more than 100 nM; in test [3] it was no more than 100 nM; in the test with Miapaca-2 cells, 1000 to 10000 nM.
On to `CNC(=O)c1cc(-c2cc(-c3cc(NC(=O)c4cccc(C(C)(C)C#N)c4)ccc3C)ccn2)ccn1` [Example 127], for which the IC50 is 1000 to 10000 nM in test [1], no more than 100 nM in test [2], no more than 100 nM in test [3] and 1000 to 10000 nM in the test with Miapaca-2 cells.
Take `CC(=O)Nc1cc(-c2nccc(-c3cc(NC(=O)c4ccnc(C(F)(F)F)c4)cnc3C)n2)ccn1` [Example 157]: the IC50 in test [1] is 1000 to 10000 nM; in test [2], no more than 100 nM; in test [3], no more than 100 nM; in the test with Miapaca-2 cells, 1000 to 10000 nM.
For `Cc1ncc(NC(=O)c2ccnc(C(C)(C)C#N)c2)cc1-c1cccc(-c2ccnc(NC(=O)C3CC3)c2)n1` [Example 172], the IC50 in test [1] is 1000 to 10000 nM; in test [2] it was no more than 100 nM; in test [3] it was no more than 100 nM; in the test on Miapaca-2 cells, 1000 to 10000 nM.
On to `CC(=O)Nc1cc(-c2cncc(-c3cc(NC(=O)c4ccnc(C5CC5)c4)ccc3C)n2)ccn1` [Example 145], for which the IC50 in test [1] was 500 to 1000 nM; in test [2], no more than 100 nM; in test [3], no more than 100 nM; in the test on Miapaca-2 cells, 1000 to 10000 nM.
Take `CNC(=O)c1cc(-c2cncc(-c3cc(NC(=O)c4ccnc(C5(C#N)CC5)c4)ccc3C)n2)ccn1` [Example 138]: the IC50 was 1000 to 10000 nM in test [1], no more than 100 nM in test [2], no more than 100 nM in test [3] and 1000 to 10000 nM with Miapaca-2 cells.
With `COCCNc1cc(-c2cccc(-c3cc(NC(=O)c4ccnc(C(F)(F)F)c4)ccc3C)c2)ncn1` [Example 156], the IC50 is 1000 to 10000 nM in test [1], no more than 100 nM in test [2], no more than 100 nM in test [3] and 1000 to 10000 nM in the test on Miapaca-2 cells.
On to `Cc1ccc(NC(=O)c2cccc(C(C)(C)C#N)c2)cc1-c1cc(OCCO)nc(-c2ccnc3c2CC(=O)N3)c1` [Example 108], for which the IC50 in test [1] is 1000 to 10000 nM; in test [2], no more than 100 nM; in test [3] it was no more than 100 nM; in the test with Miapaca-2 cells, 1000 to 10000 nM.
For the molecule `Cc1ccc(NC(=O)c2ccnc(C(C)(C)C#N)c2)cc1-c1cncc(-c2ccnc(N)c2)n1` [Example 141], the 50% inhibitory concentration (IC50) in test [1] was 1000 to 10000 nM; in test [2] it was no more than 100 nM; in test [3], no more than 100 nM; in the test with Miapaca-2 cells, 1000 to 10000 nM.
Turning to `COc1cc(C(=O)Nc2ccc(C)c(-c3cncc(-c4ccnc(NC(C)=O)c4)n3)c2)ccc1F` [Example 120], the IC50 in test [1] is 1000 to 10000 nM; in test [2] it was no more than 100 nM; in test [3], no more than 100 nM; in the test on Miapaca-2 cells it was 1000 to 10000 nM.
For `CC(=O)Nc1cc(-c2ccnc(-c3cc(NC(=O)c4ccnc(C(C)(C)C#N)c4)ccc3C)n2)ccn1` [Example 103], the IC50 in test [1] is 500 to 1000 nM; in test [2], no more than 100 nM; in test [3], no more than 100 nM; in the test with Miapaca-2 cells it was 1000 to 10000 nM.
In the case of `Cc1ccc(NC(=O)c2ccnc(C(F)(F)F)c2)cc1-c1cncc(-c2ccnc(NC(=O)CN(C)C)c2)n1` [Example 100], the IC50 was 1000 to 10000 nM in test [1], no more than 100 nM in test [2], no more than 100 nM in test [3] and 1000 to 10000 nM in the test on Miapaca-2 cells.
